Among the data in US10676468B2, “N-(3-heteroarylaryl)-4-arylarylcarboxamides and analogs as hedgehog pathway inhibitors and use thereof” (IMPACT Therapeutics, Inc., priority 2012, dated 2020) are IC50 values, retold here.

Where a name gives a salt, the structure may show the parent alone.

Common to all, as to format: cell-based, mouse
The test system of assay [1] is Hedgehog Signaling Pathway. In words: SAG-induced differentiation of C3H10T1/2 cells into osteoblastic cells, intracellular alkaline phosphatase activity. The following applies: 1 μM SAG, 5 days, alkaline phosphatase activity (OD405), read-out: IC50 values of compounds that inhibit Hh pathway. In a few lines: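 Mouse C3H10T1/2 cells were induced with SAG and exposed to compound (10 μM to 1 nM) for 5 days at 37 °C. Cells were lysed in 0.2% Triton, and alkaline phosphatase activity was read as OD405 over 30 min at 37 °C in pH 9.8 substrate buffer. IC50 came from a non-linear fit of background-subtracted OD405 against log concentration.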

Assay [2] concerns Hedgehog Signaling Pathway. Description: SHH-induced differentiation of C3H10T1/2 cells into osteoblastic cells, intracellular alkaline phosphatase activity. The following applies: 10 nM SHH-N, 5 days, alkaline phosphatase activity (OD405), read-out: IC50 values of compounds that inhibit Hh pathway. In a few lines:
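Mouse C3H10T1/2 cells were induced with 10 nM SHH-N alongside test compound (10 μM–10 nM) for 5 days at 37 °C. Cells were lysed in 0.2% Triton, and alkaline phosphatase activity was read at OD405 over 30 min at 37 °C with the background reading subtracted. IC50 came from a nonlinear fit against log concentration.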

Assay [3] relates to Hedgehog Signaling Pathway. In words: Gli-Luc reporter gene cell assay in C3H10T1/2/Gli-Luc cells stimulated with Shh. Conditions: 30 nM Shh, luciferase activity (RLU), read-out: IC50 values of compounds that inhibit Hh pathway. In a few lines: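 C3H10T1/2 cells stably carrying Gli-responsive luciferase were seeded overnight, then treated 24 h at 37 °C with compound (7-point dilution series, DMSO control) plus Shh (30 nM in added medium). Lysate luciferase RLU fitted against log concentration to derive IC50.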

[4] abbreviates: Mus musculus, C3H 10T1/2, 120 h.

Turning to `Cc1cc(C(=O)Nc2ccc(Cl)c(-c3nc4ccccc4[nH]3)c2)ccc1N1C[C@@H](C)N(C)[C@@H](C)C1` [Example 121, N-(3-(1H-benzo[d]imidazol-2-yl)-4-chlorophenyl)-3-methyl-4-((3S,5R)-3,4,5-trimethylpiperazin-1-yl)benzamide], the IC50 in assay [1] (setting [4]) is 29 nM; in assay [2] (setting [4]), 23 nM; in assay [3] (Mus musculus, C3H 10T1/2, 24 h) it was 1.6 nM.
For `Cc1cc(-c2ccc(C(F)(F)F)cc2)ccc1C(=O)Nc1ccc(Cl)c(-c2ncc(-c3ccco3)[nH]2)c1` [Example 79, N-(3-(5-(furan-2-yl)-1H-imidazol-2-yl)-4-chlorophenyl)-3-methyl-4′-(trifluoromethyl)biphenyl-4-carboxamide], in that order: 100 nM, 2.7 nM and 6.6 nM.
With `Cc1cc(-c2ccc(C(F)(F)F)cc2)ccc1C(=O)Nc1ccc(Cl)c(-c2nc3cnccc3[nH]2)c1` [Example 49, N-(3-(1H-imidazo[4,5-c]pyridin-2-yl)-4-chlorophenyl)-3-methyl-4′-(trifluoromethyl)biphenyl-4-carboxamide], the 50% inhibitory concentration (IC50) in assay [1] (setting [4]) was found to be 261 nM; in assay [2] (setting [4]), 2.4 nM; in assay [3] (Mus musculus, C3H 10T1/2, 24 h), 7.2 nM.
Turning to `CN1CCN(c2ccc(C(=O)Nc3ccc(Cl)c(-c4nc5ccccc5[nH]4)c3)cn2)CC1` [Example 103, N-(3-(1H-benzo[d]imidazol-2-yl)-4-chlorophenyl)-6-(4-methylpiperazin-1-yl)nicotinamide], the half-inhibitory concentration (IC50) in assay [1] (setting [4]) was determined as 449 nM; in assay [2] (setting [4]), 40 nM; in assay [3] (Mus musculus, C3H 10T1/2, 24 h), 9.4 nM.
As to `CCN1[C@H](C)CN(c2ccc(C(=O)Nc3ccc(Cl)c(-c4nc5ccccc5[nH]4)c3)c(C)c2)C[C@@H]1C` [Example 100, N-(3-(1H-benzo[d]imidazol-2-yl)-4-chlorophenyl)-2-methyl-4-((3S,5R)-4-ethyl-3,5-dimethylpiperazin-1-yl)benzamide], the IC50 in assay [1] (setting [4]) is 33 nM; in assay [2] (setting [4]), 2.3 nM; in assay [3] (Mus musculus, C3H 10T1/2, 24 h), 0.58 nM.
With `Cc1nc(N2C[C@@H](C)O[C@@H](C)C2)ccc1C(=O)Nc1ccc(Cl)c(-c2nc3ccccc3[nH]2)c1` [Example 38, N-(3-(1H-benzo[d]imidazol-2-yl)-4-chlorophenyl)-2-methyl-6-((2S,6R)-2,6-dimethylmorpholino)nicotinamide], the concentration for half-maximal inhibition (IC50) was 28 nM in assay [1] (setting [4]); 4.9 nM in assay [2] (setting [4]); 8.4 nM in assay [3] (Mus musculus, C3H 10T1/2, 24 h).
Regarding `C[C@@H]1CN(c2ccc(C(=O)Nc3cnc(Cl)c(-c4nc5ccccc5[nH]4)c3)c(Cl)c2)C[C@H](C)N1C` [Example 127, N-(5-(1H-benzo[d]imidazol-2-yl)-6-chloropyridin-3-yl)-2-chloro-4-((3S,5R)-3,4,5-trimethylpiperazin-1-yl)benzamide], the IC50 in assay [1] (setting [4]) is 34 nM; in assay [2] (setting [4]) it was 1.1 nM; in assay [3] (Mus musculus, C3H 10T1/2, 24 h), 1.1 nM.
With `Cc1c(C(=O)Nc2ccc(Cl)c(-c3ncc(-c4cccs4)[nH]3)c2)ccc(N2C[C@@H](C)N(C)[C@@H](C)C2)c1F` [Example 156, N-(3-(5-(thiophen-2-yl)-1H-imidazol-2-yl)-4-chlorophenyl)-2-methyl-3-fluoro-4-((3S,5R)-3,4,5-trimethylpiperazin-1-yl)benzamide], the IC50 in assay [1] (setting [4]) was 7 nM; in assay [2] (setting [4]) it was 0.2 nM; in assay [3] (Mus musculus, C3H 10T1/2, 24 h), 0.21 nM.
For `C[C@@H]1CN(c2ccc(C(=O)Nc3ccc(Cl)c(-c4nc5ccncc5[nH]4)c3)c(Cl)c2)C[C@H](C)N1C` [Example 196, N-(3-(3H-imidazo[4,5-c]pyridin-2-yl)-4-chlorophenyl)-2-chloro-4-((3S,5R)-3,4,5-trimethylpiperazin-1-yl)benzamide], the IC50 was 157 nM in assay [1] (setting [4]); 54 nM in assay [2] (setting [4]); 5.7 nM in assay [3] (Mus musculus, C3H 10T1/2, 24 h).
With `C[C@@H]1CN(c2ccc(C(=O)Nc3cnc(Cl)c(-c4nc5ccccc5[nH]4)c3)c(Cl)c2)C[C@H](C)O1` [Example 128, N-(5-(1H-benzo[d]imidazol-2-yl)-6-chloropyridin-3-yl)-2-chloro-4-((2S,6R)-2,6-dimethylmorpholino)benzamide], the IC50 in assay [1] (setting [4]) worked out at 60 nM; in assay [2] (setting [4]), 5.3 nM; in assay [3] (Mus musculus, C3H 10T1/2, 24 h), 5.2 nM.
As to `C[C@@H]1CN(c2ccc(C(=O)Nc3ccc(Cl)c(-c4nc5ccccc5[nH]4)c3)cn2)C[C@H](C)N1C` [Example 104, N-(3-(1H-benzo[d]imidazol-2-yl)-4-chlorophenyl)-6-((3S,5R)-3,4,5-trimethylpiperazin-1-yl)nicotinamide], the IC50 in assay [1] (setting [4]) was determined as 58 nM; in assay [2] (setting [4]), 0.61 nM; in assay [3] (Mus musculus, C3H 10T1/2, 24 h), 0.94 nM.
With `C[C@@H]1CN(c2ccc(C(=O)Nc3ccc(Cl)c(-c4ncc(-c5cccs5)[nH]4)c3)c(C(F)(F)F)c2)C[C@H](C)N1C` [Example 155, N-(3-(5-(thiophen-2-yl)-1H-imidazol-2-yl)-4-chlorophenyl)-2-(trifluoro-methyl)-4-((3S,5R)-3,4,5-trimethylpiperazin-1-yl)benzamide], the IC50 in assay [1] (setting [4]) was found to be 13 nM; in assay [2] (setting [4]) it was 0.11 nM; in assay [3] (Mus musculus, C3H 10T1/2, 24 h) it was 0.22 nM.
As for `C[C@@H]1CN(c2ccc(C(=O)Nc3ccc(Cl)c(-c4ncc(-c5ccco5)[nH]4)c3)c(C(F)(F)F)c2)C[C@H](C)N1C` [Example 146, N-(3-(5-(furan-2-yl)-1H-imidazol-2-yl)-4-chlorophenyl)-2-(trifluoro-methyl)-4-((3S,5R)-3,4,5-trimethylpiperazin-1-yl)benzamide], the IC50 in assay [1] (setting [4]) was determined as 25 nM; in assay [2] (setting [4]), 0.49 nM; in assay [3] (Mus musculus, C3H 10T1/2, 24 h), 0.39 nM.
`C[C@@H]1CN(c2ccc(C(=O)Nc3ccc(Cl)c(-c4nc5cscc5[nH]4)c3)c(Cl)c2)C[C@H](C)N1C` [Example 199, N-(3-(1H-thieno[3,4-d]imidazol-2-yl)-4-chlorophenyl)-2-chloro-4-((3S,5R)-3,4,5-trimethylpiperazin-1-yl)benzamide]: the IC50 worked out at 11 nM in assay [1] (setting [4]); 0.19 nM in assay [2] (setting [4]); 0.27 nM in assay [3] (Mus musculus, C3H 10T1/2, 24 h).
For the compound `Cc1cc(-c2ccc([N+](=O)[O-])cc2)ccc1C(=O)Nc1ccc(Cl)c(-c2nc3ccccc3[nH]2)c1` [Example 7, N-(3-(1H-benzo[d]imidazol-2-yl)-4-chlorophenyl)-3-methyl-4′-nitrobiphenyl-4-carboxamide], the IC50 in assay [1] (setting [4]) is 25 nM; in assay [2] (setting [4]) it was 3.5 nM; in assay [3] (Mus musculus, C3H 10T1/2, 24 h) it was 4.6 nM.
Take `Cc1cc(N2C[C@@H](C)N[C@@H](C)C2)ccc1C(=O)Nc1ccc(Cl)c(-c2nc3ccccc3[nH]2)c1` [Example 109, N-(3-(1H-benzo[d]imidazol-2-yl)-4-chlorophenyl)-2-methyl-4-((3S,5R)-3,5-dimethylpiperazin-1-yl)benzamide]: the half-inhibitory concentration (IC50) in assay [1] (setting [4]) worked out at 96 nM; in assay [2] (setting [4]), 6.4 nM; in assay [3] (Mus musculus, C3H 10T1/2, 24 h), 3.8 nM.
In the same order, the values of `Cc1cc(-c2ccc(C(F)(F)F)cc2)ccc1C(=O)Nc1ccc(Cl)c(-c2nc3ccccc3n2C)c1` [Example 47, N-(3-(1-methyl-1H-benzo[d]imidazol-2-yl)-4-chlorophenyl)-3-methyl-4′-(trifluoromethyl)biphenyl-4-carboxamide] are 102 nM, 3.3 nM and 8.7 nM.
For `Cc1ccc(NC(=O)c2ccc(N3C[C@@H](C)N(C)[C@@H](C)C3)cc2Cl)cc1-c1nc2ccc(F)cc2[nH]1` [Example 115, N-(3-(6-fluoro-1H-benzo[d]imidazol-2-yl)-4-methylphenyl)-2-chloro-4-((3S,5R)-3,4,5-trimethylpiperazin-1-yl)benzamide], in that order: 145 nM, 31 nM and 3.4 nM.
In the same order, the values of `C[C@@H]1CN(c2cc(Cl)c(C(=O)Nc3ccc(Cl)c(-c4ncc(-c5ccco5)[nH]4)c3)cc2F)C[C@H](C)N1C` [Example 149, N-(3-(5-(furan-2-yl)-1H-imidazol-2-yl)-4-chlorophenyl)-2-chloro-5-fluoro-4-((3S,5R)-3,4,5-trimethylpiperazin-1-yl)benzamide] are 15 nM, 0.27 nM and 0.28 nM.
Take “N-(3-(1H-benzo[d]imidazol-2-yl)-4-chlorophenyl)-2-cyano-4-((3S,5R)-3,4,5-trimethylpiperazin-1-yl)benzamide Dihydrochloride [Example 134]”: the IC50 in assay [1], in assay [2] and in assay [3] (24 hours) was greater than 10000 nM throughout.
Regarding `CC(C)c1cnc(-c2cc(NC(=O)c3ccc(N4C[C@@H](C)N(C)[C@@H](C)C4)cc3Cl)ccc2Cl)[nH]1` [Example 189, N-(3-(5-isopropyl-1H-imidazol-2-yl)-4-chlorophenyl)-2-chloro-4-((3S,5R)-3,4,5-trimethylpiperazin-1-yl)benzamide Dihydrochloride], the IC50 in assay [1] (setting [4]) amounted to 30 nM; in assay [2] (setting [4]), 5.2 nM; in assay [3] (Mus musculus, C3H 10T1/2, 24 h) it was 0.82 nM.
